This is an account of results in ChEMBL document CHEMBL1157695, “Identification of a novel ligand binding motif in the transthyretin channel” (Bioorg Med Chem, 2010).

The source made the active and inactive calls. The calls are words filed in the database; no cut-off is given here.

One may read the Kd as the equilibrium constant for the complex coming apart.

For test [1], the species on record is Homo sapiens. Briefly: Binding affinity to human recombinant TTR T119M mutant denominated hormone binding site expressed in Escherichia coli at 100 nM by fluorescence anisotropy.
For test [2], the target named is Transthyretin (Homo sapiens) (UniProt P02766). Briefly: Inhibition of wild type human TTR aggregation expressed in Escherichia coli assessed as fibril formation at 20 uM after 72 hrs relative by spectrofluorimetry. Set-up: scale not given: the % may be the effect or the level left.
Test [3] deals with Transthyretin (Homo sapiens, UniProt P02766, V50M). Briefly: Binding affinity to human recombinant TTR V30M mutant denominated hormone binding site expressed in Escherichia coli by FRET analysis.
A short description of test [4]: Binding affinity to human recombinant TTR T119M mutant denominated hormone binding site expressed in Escherichia coli by FRET analysis.
In test [5] the target is Transthyretin (Homo sapiens) (UniProt P02766). Nature of the test: Binding affinity to wild type human TTR denominated hormone binding site expressed in Escherichia coli at 100 nM by fluorescence anisotropy. On the technique in general: Polarisation of emitted light reports the rotation of a fluorescent probe.
Test [6] has as its system Transthyretin (Homo sapiens), P02766 [V50M]. Nature of the test: Binding affinity to human recombinant TTR V30M mutant denominated hormone binding site expressed in Escherichia coli at 100 nM by fluorescence anisotropy.
A short description of test [7]: Binding affinity to human recombinant TTR T119M mutant denominated hormone binding site expressed in Escherichia coli by isothermal direct titrimetric assay.
Test [8] can be described thus: Binding affinity to human recombinant TTR T119M mutant denominated hormone binding site expressed in Escherichia coli assessed as dissociation constant for second ligand binding event by isothermal direct titrimetric assay.
Test [9] in a line: Binding affinity to human recombinant TTR T119M mutant denominated hormone binding site expressed in Escherichia coli assessed as dissociation constant for first ligand binding event by isothermal direct titrimetric assay.
In test [10] the test system is Transthyretin (Homo sapiens), P02766 [V50M]. Nature of the test: Binding affinity to human recombinant TTR V30M mutant denominated hormone binding site expressed in Escherichia coli at 10 uM by fluorescence anisotropy.
Test [11] has as its target Transthyretin (Homo sapiens) (UniProt P02766). Nature of the test: Binding affinity to wild type human TTR denominated hormone binding site expressed in Escherichia coli at 10 uM by fluorescence anisotropy.
The species entered for test [12] is Homo sapiens. Briefly: Binding affinity to human recombinant TTR T119M mutant denominated hormone binding site expressed in Escherichia coli at 10 uM by fluorescence anisotropy.

For `Nc1cccc2c(S(=O)(=O)O)cccc12`, the result in test [1], in test [5] and in [6] was Active. Also, in test [2], the Activity was determined as 100%. The dissociation constant (Kd) was 86 µM in test [3] and 93 µM in test [4].
As to `O=C(O)Cc1ccccc1Nc1c(Cl)cccc1Cl`, in [2], the Activity is 33%.
Take `O=S(=O)(O)c1cccc2cccc(Nc3ccccc3)c12`: the Kd in [7] was 4.5 µM; in test [8], 6.7 µM; in test [9], 3.2 µM. The Activity in test [2] was determined as 44%. Also, the outcome in test [10], in test [11] and in test [12] was Active.
